# Laboratory results taken from ChEMBL document CHEMBL1201862, “PubChem BioAssay data set” (2004).
#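 Assay format: 96-well plates, 48-hour exposure. Here, GI50 denotes the concentration required for 50% inhibition of growth.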 Active and inactive are the calls of the source. Rule as the data show it: active = GI50 up to about 1.1 µM and inactive = higher.
# Legend:
# Experiment in all cases: NCI anticancer screen, dose series, 48 h
# LOX IMVI = test system: LOX IMVI
# SF-295 = test system: SF-295
# A549 = test system: A549
# KM12 = test system: KM12
# SK-MEL-28 = test system: SK-MEL-28
# UO-31 = test system: UO-31
# SF-539 = test system: SF-539
# SW-620 = test system: SW-620
# HCT-116 = test system: HCT-116
# NCI-H522 = test system: NCI-H522
# SN12C = test system: SN12C
# SF-268 = test system: SF-268
# K562 = test system: K562
# HOP-62 = test system: HOP-62
# SK-MEL-5 = test system: SK-MEL-5
# OVCAR-4 = test system: OVCAR-4
# RPMI-8226 = test system: RPMI-8226
# UACC-62 = test system: UACC-62
# Malme-3M = test system: Malme-3M
SMILES,GI50 (LOX IMVI),GI50 (SF-295),GI50 (A549),GI50 (KM12),GI50 (SK-MEL-28),GI50 (UO-31),GI50 (SF-539),GI50 (SW-620),GI50 (HCT-116),GI50 (NCI-H522),GI50 (SN12C),GI50 (SF-268),GI50 (K562),GI50 (HOP-62),GI50 (SK-MEL-5),GI50 (OVCAR-4),GI50 (RPMI-8226),GI50 (UACC-62),GI50 (Malme-3M)
CSc1nc(-c2cc3c(c(SC)n2)CCCCC3)cc2c1CCCCC2,> 100 µM (inactive),> 100 µM (inactive),> 100 µM (inactive),> 100 µM (inactive),> 100 µM (inactive),> 100 µM (inactive),> 100 µM (inactive),> 100 µM (inactive),> 100 µM (inactive),7.67 µM (inactive),> 100 µM (inactive),50.7 µM (inactive),> 100 µM (inactive),56.9 µM (inactive),> 100 µM (inactive),> 100 µM (inactive),> 100 µM (inactive),> 100 µM (inactive),–
CN1C(=O)CCC2[C@@H]3CC=C4C[C@@H](O)CC[C@]4(C)C3CC[C@@]21C (some centres not stated),–,27.2 µM (inactive),46.1 µM (inactive),59.8 µM (inactive),> 100 µM (inactive),33.8 µM (inactive),45.9 µM (inactive),> 100 µM (inactive),33.5 µM (inactive),–,–,–,21.3 µM (inactive),45.9 µM (inactive),13.5 µM (inactive),33.4 µM (inactive),20.8 µM (inactive),62.4 µM (inactive),82.4 µM (inactive)
CC1(C)[C@@H]2CC[C@@]1(C)[C@H](O)[C@@H]2SCc1ccccc1,18.5 µM (inactive),18.1 µM (inactive),19 µM (inactive),17.8 µM (inactive),17.5 µM (inactive),21 µM (inactive),17.8 µM (inactive),25.5 µM (inactive),17.2 µM (inactive),15.2 µM (inactive),17.8 µM (inactive),17.3 µM (inactive),25.2 µM (inactive),17.9 µM (inactive),15.4 µM (inactive),12.9 µM (inactive),27.5 µM (inactive),10.2 µM (inactive),–
CCOc1ccccc1NC(=O)C1=C(C)NC(C)=C(C(=O)Nc2ccccc2OCC)C1c1ccc2c(c1)OCO2,34 µM (inactive),21.2 µM (inactive),28.2 µM (inactive),11.8 µM (inactive),35.2 µM (inactive),21.8 µM (inactive),25.5 µM (inactive),38.4 µM (inactive),–,9.89 µM (inactive),38.7 µM (inactive),41.5 µM (inactive),6.01 µM (inactive),37.4 µM (inactive),11.1 µM (inactive),20.8 µM (inactive),17.4 µM (inactive),–,26.2 µM (inactive)
O=C1c2cccc3cccc(c23)C(=O)N1CCN(CCO)CCO,18 µM (inactive),47.4 µM (inactive),27.2 µM (inactive),29.5 µM (inactive),35.8 µM (inactive),30.5 µM (inactive),23.5 µM (inactive),19.1 µM (inactive),16.9 µM (inactive),–,25.4 µM (inactive),35.6 µM (inactive),25.5 µM (inactive),31.7 µM (inactive),17.2 µM (inactive),25.5 µM (inactive),12.9 µM (inactive),20.6 µM (inactive),21.2 µM (inactive)
CN(C)CCNC(=O)c1ccc(Cl)c2c(Nc3ccc(S(=O)(=O)N=C(N)N)cc3)c3ccccc3nc12,1.75 µM (inactive),3.16 µM (inactive),3.33 µM (inactive),4.21 µM (inactive),11.2 µM (inactive),0.349 µM (active),3.81 µM (inactive),1.73 µM (inactive),3.9 µM (inactive),0.603 µM (active),3.15 µM (inactive),3.48 µM (inactive),2.77 µM (inactive),10.1 µM (inactive),8.04 µM (inactive),1.87 µM (inactive),–,5.42 µM (inactive),–
Cc1cccc(NC(=O)CC(=O)N2N=C(N(CCC#N)c3ccc(Cl)cc3)CC2c2ccccc2)c1 (configuration not stated),> 100 µM (inactive),> 100 µM (inactive),> 100 µM (inactive),> 100 µM (inactive),> 100 µM (inactive),> 100 µM (inactive),> 100 µM (inactive),> 100 µM (inactive),> 100 µM (inactive),> 100 µM (inactive),> 100 µM (inactive),> 100 µM (inactive),> 100 µM (inactive),> 100 µM (inactive),> 100 µM (inactive),> 100 µM (inactive),–,> 100 µM (inactive),> 100 µM (inactive)
N#Cc1c2c(c(Cl)n3c1nc1ccccc13)CCCC2,1.9 µM (inactive),4.83 µM (inactive),4.25 µM (inactive),–,1.99 µM (inactive),3.06 µM (inactive),3.95 µM (inactive),1.96 µM (inactive),2.75 µM (inactive),–,2.09 µM (inactive),2.58 µM (inactive),2.5 µM (inactive),> 10 µM (inactive),0.566 µM (active),4.35 µM (inactive),1.7 µM (inactive),–,13.2 µM (inactive)
